Results reported in ChEMBL document CHEMBL5370529, “Perspectives on the current antiviral developments towards RNA-dependent RNA polymerase (RdRp) and methyltransferase (MTase) domains of dengue virus non-structural protein 5 (DENV-NS5)” (Eur J Med Chem, 2023).
pIC50: −log10 of the molar value. Values after ≈ are worked out from the molar mass of the structure shown. Each block holds one compound with its values, some of them ahead of it.

Key:
[1] = Cytotoxicity against hamster BHK-21 cells assessed as reduction in cell viability measured after 24 hrs by MTT assay; assay type: toxicity, cell-based, Mesocricetus auratus
[2] = Cytotoxicity against African green monkey Vero cells assessed as reduction in cell viability measured after 3 to 5 days by Cell titer-glo luminescent assay; assay type: toxicity, cell-based; details: chlorocebus sabaeus, time 3-5 day
[3] = Inhibition of DENV-3 RNA-dependent RNA polymerase expressed in Escherichia coli; design: species or system dengue virus type 3
[4] = Inhibition of DENV-4 full length NS5/RNA-dependent RNA polymerase; design: species or system dengue virus type 4
[5] = target: T1, Nonstructural protein 5 (Dengue virus, UniProt V5TFZ2); assay: Inhibition of DENV C-terminal histidine-tagged NS5/RNA-dependent RNA polymerase
[6] = Inhibition of DENV-2 NS5 polymerase incubated for 1 hr by fluorescence based analysis; design: species or system dengue virus type 2
[7] = Cytotoxicity against African green monkey Vero cells assessed as reduction in cell viability measured after 72 hrs by MTT assay; assay type: toxicity, cell-based; details: chlorocebus sabaeus
[8] = tested on: dengue virus type 2; assay: Antiviral activity against Dengue virus 2 infected in African green monkey Vero cells assessed as suppression of viral replication; assay type: functional, organism-based
[9] = tested on: A549; assay: Cytotoxicity against human A549 cells assessed as reduction in cell viability measured after 48 hrs by MTT assay; assay type: functional
[10] = Cytotoxicity against hamster BHK-21 cells assessed as cell growth inhibition measured after 48 hrs by MTT assay; assay type: toxicity, cell-based, Mesocricetus auratus
[11] = Inhibition of DENV RNA N7 methyltransferase; design: species or system Dengue virus
[12] = tested on: Huh-7; assay: Cytotoxicity against human Huh-7 cells assessed as reduction in cell viability measured after 48 hrs by MTT assay; assay type: functional
[13] = Cytotoxicity against human HEK293T cells assessed as reduction in cell viability measured after 48 hrs by MTT assay; assay type: toxicity, cell-based, HEK-293T
[14] = tested on: Huh-7; assay: Cytotoxicity against human Huh-7 cells assessed as reduction in cell viability measured after 48 hrs by Cell-titer glo luminescent assay; assay type: functional
[15] = tested on: PBMC; assay: Cytotoxicity against human PBMC cells assessed as reduction in cell viability measured after 48 hrs by Cell-titer glo luminescent assay; assay type: functional
[16] = Cytotoxicity against hamster BHK-21 cells assessed as reduction in cell viability measured after 48 hrs by Cell-titer glo luminescent assay; assay type: toxicity, cell-based, Mesocricetus auratus
[17] = tested on: A549; assay: Cytotoxicity against human A549 cells assessed as reduction in cell viability measured after 48 hrs by Cell-titer glo luminescent assay; assay type: functional
[18] = Inhibition of Dengue virus RNA-dependent RNA polymerase in human Huh-7 cells; assay type: cell-based
[19] = Inhibition of Dengue virus 3 nucleoside-2'O-methyltransferase; design: species or system dengue virus type 3
[20] = tested on: Huh-7; assay: Cytotoxicity against human Huh-7 cells assessed as reduction in cell viability measured after 48 hrs by Celltiter-glo assay; assay type: functional
[21] = Inhibition of DENV-4 full length NS5/RNA-dependent RNA polymerase in Huh-7 cells; assay type: cell-based, dengue virus type 4
[22] = target: T1, Nonstructural protein 5; assay: Inhibition of DENV/NS5 RNA-dependent RNA polymerase
[23] = Inhibition of DENV RNA-dependent RNA polymerase activity; design: species or system Dengue virus
[24] = target: T1, Nonstructural protein 5; assay: Inhibition of DENV His-tagged recombinant NS5/RNA-dependent RNA polymerase
[25] = Inhibition of DENV-2 full length His-tagged RNA-dependent RNA polymerase expressed in Escherichia coli Rosetta cells BL21 (DE3) cells incubated for 2 hrs; design: species or system dengue virus type 2
[26] = Cytotoxicity against hamster BHK-21 cells assessed as reduction in cell viability measured after 42 hrs by MTT assay; assay type: toxicity, cell-based, Mesocricetus auratus
[27] = Inhibition of West Nile virus recombinant N-terminal NS5-methyltransferase
[28] = Inhibition of DENV3 N-terminal 6-His-tagged RNA-dependent RNA polymerase expressed in Escherichia coli BL21; design: species or system dengue virus type 3
[29] = Cytotoxicity against African green monkey Vero E6 cells assessed as reduction in cell viability measured after 96 hrs by MTT assay; assay type: toxicity, cell-based; details: chlorocebus sabaeus, Vero E6 (Vero C1008) cells
[30] = Cytotoxicity against asian tiger mosquito C6/36 cells assessed as reduction in cell viability measured after 24 hrs by MTT assay; assay type: toxicity, cell-based; details: aedes albopictus
[31] = tested on: Huh-7; assay: Cytotoxicity against human Huh-7 cells assessed as reduction in cell viability measured after 24 hrs by viral-Tox-glo assay; assay type: functional
[32] = target: T1, Nonstructural protein 5; assay: Inhibition of Dengue virus NS5/RNA-dependent RNA polymerase
[33] = Cytotoxicity against monkey LLC-MK2 cells assessed as reduction in cell viability measured after 48 hrs by MTT assay; assay type: toxicity, cell-based, Macaca mulatta; details: rhesus monkey

T1 sequence (V5TFZ2 whole entry): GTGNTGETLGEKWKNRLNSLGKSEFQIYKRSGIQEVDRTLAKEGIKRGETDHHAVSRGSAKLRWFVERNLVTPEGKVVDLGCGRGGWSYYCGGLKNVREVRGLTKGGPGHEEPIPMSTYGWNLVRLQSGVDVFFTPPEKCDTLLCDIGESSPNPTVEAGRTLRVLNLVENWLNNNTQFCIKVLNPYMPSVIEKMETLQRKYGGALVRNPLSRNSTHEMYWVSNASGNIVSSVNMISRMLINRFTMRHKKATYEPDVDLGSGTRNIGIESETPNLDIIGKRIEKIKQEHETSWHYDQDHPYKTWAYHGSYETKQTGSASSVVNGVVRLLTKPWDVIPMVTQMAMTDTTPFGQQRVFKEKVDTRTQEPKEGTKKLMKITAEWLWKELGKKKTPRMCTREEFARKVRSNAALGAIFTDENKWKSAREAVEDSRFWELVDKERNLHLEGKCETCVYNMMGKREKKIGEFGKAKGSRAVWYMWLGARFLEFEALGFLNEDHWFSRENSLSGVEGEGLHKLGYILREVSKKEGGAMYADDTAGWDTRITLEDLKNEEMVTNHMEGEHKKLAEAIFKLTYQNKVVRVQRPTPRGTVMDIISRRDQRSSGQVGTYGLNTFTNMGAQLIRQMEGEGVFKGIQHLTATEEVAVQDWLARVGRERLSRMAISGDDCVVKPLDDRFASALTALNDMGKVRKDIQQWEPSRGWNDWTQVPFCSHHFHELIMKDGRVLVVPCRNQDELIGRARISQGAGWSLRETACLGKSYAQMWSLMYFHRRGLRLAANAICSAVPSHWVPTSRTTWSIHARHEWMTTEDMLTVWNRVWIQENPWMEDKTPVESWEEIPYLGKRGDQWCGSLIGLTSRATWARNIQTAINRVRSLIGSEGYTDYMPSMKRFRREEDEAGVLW

SMILES: Cc1ccc(C2N(c3ccccc3)CC3=C(CC(C)(C)CC3=O)N2c2ccccc2)cc1 (stereo not given)
CC50 at 24 h [1]: 10 µM

SMILES: COc1cc(C)c(C(=O)NS(=O)(=O)c2cccc3cccnc23)cc1-c1ccc(C#CCO)s1
pIC50 [6]: 5.72

SMILES: CC(=O)O[C@H]1[C@H](O[C@H]2CC[C@]34C[C@]35CC[C@]3(C)[C@@H]([C@@]6(C)CC[C@@H](C(C)(C)O)O6)[C@@H](O)C[C@@]3(C)[C@@H]5C[C@H](O[C@@H]3O[C@H](CO)[C@@H](O)[C@H](O)[C@H]3O)[C@H]4C2(C)C)OC[C@@H](O)[C@@H]1O
CC50 at 72 h [7]: > 1000 µg/mL
EC50 [8]: 1.56 µg/mL (≈ 1.89 µM)

SMILES: CCC(/C(C)=C/c1cc(OC)c(OC)cc1OC)c1cc(OC)c(OC)cc1OC (stereo not given)
CC50 [9]: > 80 µM
CC50 at 48 h [10]: > 80 µM
pIC50 [11]: 5.35
CC50 [12]: > 80 µM
CC50 at 48 h [13]: > 80 µM

SMILES: C#C[C@@]1(O)[C@H](O)[C@@H](CO)O[C@H]1n1ccc2c(N)ncnc21
CC50 [14]: > 100 µM
CC50 [15]: > 100 µM
CC50 at 48 h [16]: > 100 µM
CC50 [17]: > 100 µM
pIC50 [18]: 6.51

SMILES: NC(=O)c1ncn([C@@H]2O[C@H](COP(=O)(O)OP(=O)(O)OP(=O)(O)O)[C@@H](O)[C@H]2O)n1 [RTP]
pIC50 [19]: 4.00

SMILES: CC1=C(/C=C/C(C)=C/C=C/C(C)=C/C(=O)Nc2ccc(O)cc2)C(C)(C)CCC1 [FENRETINIDE]
CC50 [20]: ≤ 10 µM
pIC50 [21]: 5.30

SMILES: C[C@@H]1O[C@@H](Oc2c(-c3ccc(O)c(O)c3)oc3cc(O)cc(O)c3c2=O)[C@H](O)[C@H](O)[C@H]1O [QUERCITRIN]
pIC50 [22]: 5.68

SMILES: CC(C)(O)[C@@H]1CC[C@](C)([C@H]2[C@@H](O)C[C@@]3(C)[C@@H]4C[C@H](O[C@@H]5O[C@H](CO)[C@@H](O)[C@H](O)[C@H]5O)[C@H]5C(C)(C)[C@@H](O[C@@H]6OC[C@@H](O)[C@H](O)[C@H]6O)CC[C@@]56C[C@@]46CC[C@]23C)O1
CC50 at 72 h [7]: > 1000 µg/mL
EC50 [8]: 1.56 µg/mL (≈ 1.99 µM)

SMILES: Nc1cc(C(F)(F)F)ccc1NC(=O)Nc1cccc(S(=O)(=O)Nc2ccc(C(=O)O)cc2)c1
pIC50 [24]: 3.82

SMILES: O=C1[C@@H]2Cc3ccccc3N2[C@@H](c2ccc(O)c(O)c2)N1Nc1ccc([N+](=O)[O-])cc1
pIC50 [25]: 5.64

SMILES: C=C1CC[C@@H]2[C@]3(C)COC(C)(C)O[C@@H]3CC[C@@]2(C)[C@@H]1C/C=C1/C(=O)OC[C@@H]1Oc1c(Cl)cc(Cl)c2ccc(C)nc12
CC50 at 24 h [30]: 15.6 µg/mL (≈ 26 µM)

SMILES: C=C1CC[C@@H]2[C@](C)(CO)[C@H](O)CC[C@@]2(C)[C@@H]1C/C=C1/C(=O)OC[C@H]1O [ANDROGRAPHOLIDE]
CC50 at 24 h [30]: 15.6 µg/mL (≈ 44.6 µM)

SMILES: CC(C)OC(=O)[C@H](C)N[P@](=O)(OC[C@H]1O[C@@H](n2ccc(=O)[nH]c2=O)[C@](C)(F)[C@@H]1O)Oc1ccccc1 [SOFOSBUVIR]
CC50 [31]: > 100 µM
pIC50 [32]: 4.83

SMILES: CC(C)(O)[C@H]1CC[C@@](C)([C@H]2[C@@H](O)C[C@]3(C)[C@H]4C[C@@H](O)[C@H]5C(C)(C)[C@H](O[C@H]6OC[C@H](O)[C@@H](O)[C@@H]6O[C@H]6O[C@@H](CO)[C@H](O)[C@@H](O)[C@@H]6O)CC[C@]56C[C@]46CC[C@@]23C)O1
CC50 at 72 h [7]: > 1000 µg/mL
EC50 [8]: 1.56 µg/mL (≈ 1.99 µM)

Continued, in another order:

pIC50 [3]: 3.54
pIC50 [4]: 3.35
SMILES: CC(=O)Oc1ccc2oc(=O)sc2c1
CC50 [2]: 50 µM

pIC50 [5]: 6.48
SMILES: O=c1cc(-c2ccc(O)c(-c3c(O)cc4oc(-c5ccc(O)cc5)cc(=O)c4c3O)c2)oc2cc(O)cc(O)c12 [ROBUSTAFLAVONE]

pIC50 [22]: 5.72
SMILES: O=c1c(O)c(-c2ccc(O[C@@H]3O[C@H](CO)[C@@H](O)[C@H](O)[C@H]3O)c(O)c2)oc2cc(O)cc(O)c12 [SPIRAEOSIDE]

pIC50 [23]: 7.00
SMILES: C#C[C@@]1(O)[C@H](OC(=O)C(C)C)[C@@H](COC(=O)C(C)C)O[C@H]1n1cc(C(N)=O)c2c(N)ncnc21

pIC50 [24]: 3.82
SMILES: Nc1cc(C(F)(F)F)ccc1NC(=O)Nc1ccc(S(=O)(=O)Nc2ccc(C(=O)O)cc2)cc1

pIC50 [5]: 6.59
SMILES: O=c1cc(-c2ccc(Oc3c(O)cc4oc(-c5ccc(O)cc5)cc(=O)c4c3O)cc2)oc2cc(O)cc(O)c12 [HINOKIFLAVONE]

pIC50 [27]: 5.25
SMILES: CC1=C(Nc2c(C)cc(O)cc2O)C(=O)C=c2oc3c(c21)C(C)=C(Nc1c(C)cc(O)cc1O)C(=O)C=3
CC50 at 42 h [26]: 117 µM

pIC50 [22]: 5.68
SMILES: C[C@@H]1O[C@@H](OC[C@H]2O[C@@H](Oc3c(-c4ccc(O)c(O)c4)oc4cc(O)cc(O)c4c3=O)[C@H](O)[C@@H](O)[C@@H]2O)[C@H](O)[C@H](O)[C@H]1O [RUTIN]

pIC50 [28]: 5.82
SMILES: O=C(N[C@@H](Cc1ccc(O)cc1)C(=O)O)c1cc(-c2ccccc2)c(=O)n2c1sc1ccc(OC3CCCCC3)cc12
CC50 at 96 h [29]: > 100 µM

pIC50 [25]: 5.68
SMILES: O=C1[C@@H]2Cc3ccccc3N2[C@@H](c2ccco2)N1Nc1ccccc1

pIC50 [22]: 5.77
SMILES: O=c1c(O[C@@H]2O[C@@H](CO)[C@H](O)[C@H]2O)c(-c2ccc(O)c(O)c2)oc2cc(O)cc(O)c12 [AVICULARIN]

pIC50 [24]: 3.82
SMILES: CC(=O)N[C@@H](C(=O)O)C(C)(C)SN=O
CC50 at 48 h [33]: 200 µM
